{"source": "patent US11091472B2", "about": "“PI-kinase inhibitors with anti-infective activity” (The Board of Trustees of the Leland Stanford Junior …, priority 2016, dated 2021)", "key": {"HCV replicon": {"tested_on": "HCV replicon", "details": "HCV replicon system"}, "ER-localized calnexin": {"tested_on": "ER-localized calnexin", "assay": "Calnexin co-staining as control for ER morphology", "format": "cell-based", "details": "co-stained with antibody to calnexin", "procedure": "(§1) To further confirm its mechanism of action the effect of (1) on PI-4 levels was determined in cells using immunofluorescence to monitor the intracellular localized pools of PI-4. The effect of (1) on intracellular pools of PIP2 was tested, which were predicted to be similarly sensitive to inhibition using (1). […] Uninfected Huh7.5 cells or HCV-infected Huh7.5 cells were used. Cells were treated with […], 500 nM or 1 uM concentrations of (1) or vehicle control, and analyzed by immunofluorescence with antibodies to PI(4)P or PI(4,5)P2 along with an antibody to calnexin to control for ER morphology."}, "PI(4)P": {"tested_on": "PI(4)P", "assay": "Immunofluorescence of intracellular PI-4 pools in cells", "format": "cell-based", "details": "Huh7.5 cells, uninfected or HCV-infected, 250 nm, 500 nM or 1 uM", "procedure": "as §1"}, "HCV": {"tested_on": "HCV", "assay": "HCV standard replication assay", "details": "Hepatitis C virus, read-out: EC50 against HCV"}, "in vitro": {"assay": "in vitro", "format": "cell-based"}, "PI(4,5)P2": {"tested_on": "PI(4,5)P2", "assay": "Immunofluorescence of intracellular PIP2 pools in cells", "format": "cell-based", "details": "Huh7.5 cells, uninfected or HCV-infected, 250 nm, 500 nM or 1 uM", "procedure": "as §1"}, "MERS coronavirus": {"tested_on": "MERS coronavirus", "assay": "microbe, parasite or virus in culture", "format": "cell-based", "details": "Middle East respiratory syndrome-related coronavirus, read-out: MERS coronavirus EC50 (uM)"}, "PI3K p110a": {"target": "PI3K p110a (Homo sapiens (Human), UniProt P42336)", "sequence (P42336 whole entry)": "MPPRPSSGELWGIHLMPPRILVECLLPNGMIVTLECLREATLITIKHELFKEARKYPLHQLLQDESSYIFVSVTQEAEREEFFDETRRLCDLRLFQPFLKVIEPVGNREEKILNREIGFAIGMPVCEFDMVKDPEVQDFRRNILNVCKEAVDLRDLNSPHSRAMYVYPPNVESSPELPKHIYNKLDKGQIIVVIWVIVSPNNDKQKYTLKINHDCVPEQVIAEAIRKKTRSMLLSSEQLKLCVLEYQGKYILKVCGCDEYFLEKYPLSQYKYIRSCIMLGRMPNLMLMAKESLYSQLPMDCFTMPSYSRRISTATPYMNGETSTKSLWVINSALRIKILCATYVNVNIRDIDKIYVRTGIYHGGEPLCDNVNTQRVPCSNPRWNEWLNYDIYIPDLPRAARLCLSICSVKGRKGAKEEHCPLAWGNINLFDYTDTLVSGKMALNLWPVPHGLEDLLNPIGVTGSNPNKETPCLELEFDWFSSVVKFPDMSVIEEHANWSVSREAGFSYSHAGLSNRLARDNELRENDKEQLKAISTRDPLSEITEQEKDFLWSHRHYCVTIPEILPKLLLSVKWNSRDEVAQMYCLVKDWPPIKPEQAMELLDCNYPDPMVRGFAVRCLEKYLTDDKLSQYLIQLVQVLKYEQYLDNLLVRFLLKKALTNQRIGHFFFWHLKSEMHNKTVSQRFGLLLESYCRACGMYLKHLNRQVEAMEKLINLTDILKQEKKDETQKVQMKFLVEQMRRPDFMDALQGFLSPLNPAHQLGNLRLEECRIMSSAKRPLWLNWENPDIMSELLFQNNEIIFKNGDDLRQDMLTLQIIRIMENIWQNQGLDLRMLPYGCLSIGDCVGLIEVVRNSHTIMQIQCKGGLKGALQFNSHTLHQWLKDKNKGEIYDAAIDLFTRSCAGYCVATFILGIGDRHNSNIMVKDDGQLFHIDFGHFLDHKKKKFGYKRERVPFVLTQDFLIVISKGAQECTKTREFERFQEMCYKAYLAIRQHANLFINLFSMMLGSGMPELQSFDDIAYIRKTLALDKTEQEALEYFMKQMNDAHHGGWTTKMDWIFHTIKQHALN", "sequence (P27986 whole entry partner)": "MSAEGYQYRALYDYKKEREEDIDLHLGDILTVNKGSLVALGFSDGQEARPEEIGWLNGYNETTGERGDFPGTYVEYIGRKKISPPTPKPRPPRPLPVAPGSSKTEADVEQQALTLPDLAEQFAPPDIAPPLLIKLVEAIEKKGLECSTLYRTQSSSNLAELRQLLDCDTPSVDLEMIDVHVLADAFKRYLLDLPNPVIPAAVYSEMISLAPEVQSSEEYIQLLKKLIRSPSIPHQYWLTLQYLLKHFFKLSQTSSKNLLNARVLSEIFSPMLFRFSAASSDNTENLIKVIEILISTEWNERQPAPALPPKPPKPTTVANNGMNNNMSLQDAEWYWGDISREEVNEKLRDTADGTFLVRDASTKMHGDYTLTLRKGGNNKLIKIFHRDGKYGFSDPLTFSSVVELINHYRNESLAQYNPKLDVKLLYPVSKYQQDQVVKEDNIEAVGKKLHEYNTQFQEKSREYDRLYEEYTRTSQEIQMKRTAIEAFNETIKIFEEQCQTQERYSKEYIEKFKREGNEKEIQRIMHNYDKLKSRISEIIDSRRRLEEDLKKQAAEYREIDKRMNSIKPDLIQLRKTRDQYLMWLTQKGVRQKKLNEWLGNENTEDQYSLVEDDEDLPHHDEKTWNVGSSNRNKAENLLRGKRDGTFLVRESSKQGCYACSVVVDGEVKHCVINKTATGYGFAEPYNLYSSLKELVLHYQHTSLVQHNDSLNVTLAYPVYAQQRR", "assay": "PI3K p110a kinase assay", "format": "biochemical", "details": "kinase activity"}, "Cell toxicity (CC50)": {"assay": "Cell toxicity (CC50)", "format": "cell-based", "details": "human, HuH-7 cells"}, "Influenza A virus H1N1": {"tested_on": "Influenza A virus H1N1", "assay": "Influenza A virus H1N1 cell based antiviral assay"}, "NV (GT1)": {"tested_on": "NV (GT1)", "assay": "NV (GT1) cell based antiviral assay", "procedure": "Compounds of interest were tested in a variety of cell based assays for antiviral activity."}, "Dengue virus 2": {"tested_on": "Dengue virus 2", "assay": "Dengue virus 2 cell based antiviral assay"}, "PI3KC2B": {"target": "PI3KC2B (Homo sapiens (Human), UniProt O00750)", "sequence (O00750 whole entry)": "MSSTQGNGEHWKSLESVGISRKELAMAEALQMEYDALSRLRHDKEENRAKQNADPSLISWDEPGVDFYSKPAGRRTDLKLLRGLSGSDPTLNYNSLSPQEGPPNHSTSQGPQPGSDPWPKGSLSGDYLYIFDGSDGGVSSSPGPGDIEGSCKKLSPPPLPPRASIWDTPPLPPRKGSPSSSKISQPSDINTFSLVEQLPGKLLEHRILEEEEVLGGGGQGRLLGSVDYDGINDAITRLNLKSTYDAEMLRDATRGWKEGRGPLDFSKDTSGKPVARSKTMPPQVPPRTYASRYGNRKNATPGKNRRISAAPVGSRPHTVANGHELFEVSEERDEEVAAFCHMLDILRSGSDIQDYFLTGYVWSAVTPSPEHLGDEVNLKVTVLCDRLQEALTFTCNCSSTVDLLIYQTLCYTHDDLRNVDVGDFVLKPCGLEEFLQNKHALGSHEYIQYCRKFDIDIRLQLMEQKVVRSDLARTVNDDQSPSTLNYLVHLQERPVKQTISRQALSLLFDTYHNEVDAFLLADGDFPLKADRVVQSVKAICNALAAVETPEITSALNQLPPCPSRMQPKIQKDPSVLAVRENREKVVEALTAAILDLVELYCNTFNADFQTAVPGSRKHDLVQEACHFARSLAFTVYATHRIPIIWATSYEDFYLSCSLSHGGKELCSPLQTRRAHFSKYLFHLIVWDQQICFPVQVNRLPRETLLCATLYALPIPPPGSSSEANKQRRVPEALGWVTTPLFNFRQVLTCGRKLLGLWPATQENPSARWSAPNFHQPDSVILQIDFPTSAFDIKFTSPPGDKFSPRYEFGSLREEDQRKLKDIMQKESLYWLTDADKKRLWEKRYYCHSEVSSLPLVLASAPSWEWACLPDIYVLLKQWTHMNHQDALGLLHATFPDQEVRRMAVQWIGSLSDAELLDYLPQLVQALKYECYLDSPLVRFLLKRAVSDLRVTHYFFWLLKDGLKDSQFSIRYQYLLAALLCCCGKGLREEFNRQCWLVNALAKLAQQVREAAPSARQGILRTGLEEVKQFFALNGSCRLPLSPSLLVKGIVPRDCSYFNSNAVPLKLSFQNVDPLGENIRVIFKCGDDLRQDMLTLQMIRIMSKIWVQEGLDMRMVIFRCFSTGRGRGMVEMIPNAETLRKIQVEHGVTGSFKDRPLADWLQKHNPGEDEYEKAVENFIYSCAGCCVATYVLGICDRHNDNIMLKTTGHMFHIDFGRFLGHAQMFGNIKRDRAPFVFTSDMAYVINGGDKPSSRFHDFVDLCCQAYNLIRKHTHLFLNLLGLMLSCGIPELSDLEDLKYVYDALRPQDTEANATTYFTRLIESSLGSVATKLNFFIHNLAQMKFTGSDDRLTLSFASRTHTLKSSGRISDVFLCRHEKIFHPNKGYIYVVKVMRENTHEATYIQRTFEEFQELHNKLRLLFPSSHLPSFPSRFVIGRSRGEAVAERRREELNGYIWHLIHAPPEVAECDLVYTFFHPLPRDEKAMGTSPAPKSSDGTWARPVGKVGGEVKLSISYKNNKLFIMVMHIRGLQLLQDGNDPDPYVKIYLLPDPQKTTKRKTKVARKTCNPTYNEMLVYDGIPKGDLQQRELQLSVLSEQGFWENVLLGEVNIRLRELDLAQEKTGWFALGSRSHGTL", "assay": "PI3KC2B kinase assay", "format": "biochemical", "details": "kinase activity", "procedure": "PI-kinase assay: Compounds are tested in C.1.1. PI kinase assays as described by Shokat et al., “A membrane capture assay for lipid kinase activity.” Nat. Protoc. 2007; 2(10):2459-66.\n(§2) Selected compounds of Table 1 and 2 were prepared and tested for inhibition activity in a variety of kinase assays."}, "HCV2a": {"tested_on": "HCV2a", "assay": "microbe, parasite or virus in culture", "format": "cell-based, HCV", "details": "Hepatitis C virus, Huh7.5, read-out: HCV2a EC50"}, "PI3KC2G": {"target": "PI3KC2G (Homo sapiens (Human), UniProt O75747)", "assay": "PI3KC2G kinase assay", "format": "biochemical", "details": "kinase activity", "procedure": "PI-kinase assay: Compounds are tested in C.1.1. PI kinase assays as described by Shokat et al., “A membrane capture assay for lipid kinase activity.” Nat. Protoc.\nas §2"}, "PI3K p110g": {"target": "PI3K p110g (Homo sapiens (Human), UniProt P48736)", "assay": "PI3K p110g kinase assay", "format": "biochemical", "details": "kinase activity"}, "PI4KIIIB": {"target": "PI4KIIIB (Bos taurus (Bovine), UniProt O02810)", "sequence (O02810 whole entry)": "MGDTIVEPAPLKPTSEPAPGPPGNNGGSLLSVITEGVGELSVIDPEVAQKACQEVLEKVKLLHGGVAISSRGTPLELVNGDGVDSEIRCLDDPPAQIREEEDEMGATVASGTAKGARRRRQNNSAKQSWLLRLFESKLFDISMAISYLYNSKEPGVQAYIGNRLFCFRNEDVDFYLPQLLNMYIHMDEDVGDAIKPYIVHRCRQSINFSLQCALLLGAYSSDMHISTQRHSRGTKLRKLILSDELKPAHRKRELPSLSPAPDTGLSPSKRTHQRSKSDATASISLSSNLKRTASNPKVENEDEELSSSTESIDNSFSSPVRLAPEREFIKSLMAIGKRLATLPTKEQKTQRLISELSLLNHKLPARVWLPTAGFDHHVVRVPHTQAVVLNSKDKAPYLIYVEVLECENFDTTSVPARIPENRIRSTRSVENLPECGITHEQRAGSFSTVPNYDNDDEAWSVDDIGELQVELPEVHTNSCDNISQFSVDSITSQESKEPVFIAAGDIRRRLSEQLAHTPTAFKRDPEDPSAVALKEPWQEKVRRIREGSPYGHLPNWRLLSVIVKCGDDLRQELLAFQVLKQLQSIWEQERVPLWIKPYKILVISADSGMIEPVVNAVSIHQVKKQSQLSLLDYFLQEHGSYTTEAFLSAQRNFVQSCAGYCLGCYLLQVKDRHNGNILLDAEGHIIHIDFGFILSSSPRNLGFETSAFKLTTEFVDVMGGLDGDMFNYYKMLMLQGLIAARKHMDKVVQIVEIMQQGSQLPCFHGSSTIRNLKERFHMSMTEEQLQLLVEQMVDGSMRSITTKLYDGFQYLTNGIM", "assay": "PI4KIIIβ kinase assay (immunoprecipitated HA-tagged enzyme, [γ-32P]-ATP)", "format": "biochemical", "details": "kinase activity"}, "[1]": {"tested_on": "Adenovirus 5 (Adenoid 75)", "assay": "Adenovirus 5 cell based antiviral assay", "details": "Human mastadenovirus C"}, "Enterovirus 68": {"tested_on": "Enterovirus 68", "assay": "Enterovirus 68 cell based antiviral assay", "details": "Enterovirus D"}, "Poliovirus (WM-3)": {"tested_on": "Poliovirus (WM-3)", "assay": "microbe, parasite or virus in culture", "format": "cell-based", "details": "Enterovirus C, read-out: Poliovirus (WM-3) EC50 (uM)"}, "Coxsackie virus B3": {"tested_on": "Coxsackie virus B3", "assay": "Coxsackie virus B3 cell based antiviral assay", "details": "Enterovirus B"}, "Enterovirus 71": {"tested_on": "Enterovirus 71", "assay": "Enterovirus 71 cell based antiviral assay", "details": "Enterovirus A"}, "Ebola": {"tested_on": "Ebola", "assay": "microbe, parasite or virus in culture", "format": "cell-based", "details": "Zaire ebolavirus, read-out: Ebola EC50"}}, "note": "Entries after “also recorded” stand apart in the source; their conditions may differ."}
{"smiles": "COc1ccc(-c2sc(NC(=O)C3CCCC3)nc2C)cc1S(=O)(=O)Nc1ccc(O)cc1", "note": "[Compound 1]", "values": [{"measurement": "selection of resistance", "setting": "HCV replicon", "value": "resistance was not able to be selected"}, {"measurement": "effects on the ER", "setting": "ER-localized calnexin", "value": "absence of any detectable effects on the ER"}, {"measurement": "effect on PI-4 (PI(4)P) levels in cells", "setting": "PI(4)P", "value": "dose-dependent decrease; also recorded: decreases"}, {"measurement": "EC50", "setting": "HCV", "value": 365, "unit": "nM"}, {"measurement": "CC50", "setting": "in vitro", "value": "> 10000", "unit": "nM"}, {"measurement": "effect on intracellular pools of PIP2 (PI(4,5)P2)", "setting": "PI(4,5)P2", "value": "dose-dependent decrease; also recorded: decreases"}]}
{"smiles": "COc1ccc(-c2sc(NC(=O)CC3CCOCC3)nc2C)cc1S(=O)(=O)Nc1ccc(O)cc1", "note": "[Compound S-227]", "values": [{"measurement": "EC50", "setting": "MERS coronavirus", "value": "> 10", "unit": "µM"}, {"measurement": "IC50", "setting": "PI3K p110a", "value": "> 10000", "unit": "nM"}, {"measurement": "CC50", "setting": "Cell toxicity (CC50)", "value": "> 10000", "unit": "nM"}, {"measurement": "EC50", "setting": "Influenza A virus H1N1", "value": "> 10000", "unit": "nM"}, {"measurement": "EC50", "setting": "NV (GT1)", "value": "100 to 1000", "unit": "nM"}, {"measurement": "EC50", "setting": "Dengue virus 2", "value": "> 10000", "unit": "nM"}, {"measurement": "IC50", "setting": "PI3KC2B", "value": "> 10000", "unit": "nM"}, {"measurement": "EC50", "setting": "HCV2a", "value": "1 to 100", "unit": "nM"}, {"measurement": "IC50", "setting": "PI3KC2G", "value": "1000 to 10000", "unit": "nM"}, {"measurement": "IC50", "setting": "PI3K p110g", "value": "> 10000", "unit": "nM"}, {"measurement": "IC50", "setting": "PI4KIIIB", "value": "< 100", "unit": "nM"}, {"measurement": "EC50", "setting": "[1]", "value": "> 10000", "unit": "nM"}, {"measurement": "EC50", "setting": "Enterovirus 68", "value": "< 1", "unit": "nM"}, {"measurement": "EC50", "setting": "Poliovirus (WM-3)", "value": "0.001 to 0.1", "unit": "µM"}, {"measurement": "EC50", "setting": "Coxsackie virus B3", "value": "1 to 100", "unit": "nM"}, {"measurement": "EC50", "setting": "Enterovirus 71", "value": "1 to 100", "unit": "nM"}, {"measurement": "EC50", "setting": "Ebola", "value": "100 to 1000", "unit": "nM"}]}
